Series [1] has as its system CHO-WBL cells. Kind of series: Chromosomal aberration assay (genotoxicity). The series is classed as cell-based, Chinese hamster. The note with it: CP 2.5, +S9, 3 h treatment, harvest 22 h. The procedure:
All cells were cultured for 22 h after initiation of INS treatment.

The nature of series [2]: Stability test in rat plasma. The settings on record: for Analyte Remaining %: 10 mg/ml stock into plasma 1:1, LC-MS; for Concentration calculated from LC-MS data: 10 mg/ml stock into plasma 1:1, methanol precipitation, 0.45 µm filtration. The series is classed as in vitro ADME. The procedure: (§1) Analytic HPLC-MS was performed using an Agilent 1260 series Liquid Chromatography/Mass Selective Detector (MSD) equipped with an electrospray interface and a UV diode array detector. Analyses were performed on an ACE C8, 50 × 3.0 mm, 3 µm column, with an isocratic 0.1% formic acid/ACN eluent, at a rate of 1 ml/min over a period of 5 min. UV absorption was measured at 280 nm, 220 nm, and 215–395 nm. MS analysis was performed with ESI (electron spray ionization) with a positive ionization method.
(§2) Four reaction systems were prepared; INS and INR2 in human plasma, INS and INR2 in rat plasma (Supplementary Table 2). Freshly prepared 10 mg/ml stock solution of the peptides was injected into plasma or PBS solution (1:1). The mixture was diluted with methanol to precipitate the plasma proteins. The samples were filtered through PTFE 0.45 µm filters and run in LC-MS. Samples were taken at the following times: 0, 15, 30, 60, 120, 240, and 480 min and after 24 h.

The subject of series [3] is H1975 lung cancer cells. Kind of series: Cytotoxicity of peptides without lentiviral particles, MTT. It is filed as cell-based, human. The note with it: peptide alone, three times over ten days. On the procedure: H1975 lung cancer cells were treated three times over the course of 10 days (on days 2, 4, and 7) with different concentrations of the tested peptides. Following ten days of incubation, cells were analyzed for potential toxicity using a quantitative cell viability test, the MTT assay.

Series [4] in a line: Solubility of IN-derived peptides in rat plasma. The settings on record: LC-MS. It is filed as physicochemical. The procedure:
as §1, §2
(§3) Plasma solubility was determined at 0 min and was verified at 60 min (if no degradation was observed).

A short description of series [5]: Solubility of IN-derived peptides in PBS. The series is classed as physicochemical. The settings on record: for Solubility: at 0 min, verified at 60 min, LC-MS. On the procedure: as §1, §2, §3
The nature of series [6]: Solubility of IN-derived peptides in human plasma. The series is classed as physicochemical. The settings on record: LC-MS. The procedure:
as §1, §2, §3

The nature of series [7]: Stability test in human plasma. It is filed as in vitro ADME. The note with it: for Analyte Remaining % / Concentration calculated from LC-MS data: human plasma, 10 mg/ml stock into plasma 1:1, LC-MS; for Concentration calculated from LC-MS data: methanol precipitation, 0.45 µm filtration. On the procedure:
as §1, §2

For series [8], the system named is H1975 lung cancer cells. Kind of series: Microscopic observation of GFP incorporation. The series is classed as cell-based, human. The note with it: 30 MOI LV-CD24 and 25 µM INS with 50 µM Raltegravir; 24 h post-treatment. The procedure:
Fig. 2 The effect of IN-derived peptides on cell survival. A Schematic illustration of the treatment protocol. B Microscopic observation of the GFP incorporation inhibition by Raltegravir. H1975 lung cancer cells were exposed to 30 MOI LV-CD24 and 25 µM INS with or without the addition of 50 µM Raltegravir. Images were taken 24 h post-treatment. C 2000 Panc-1 (left) and H1975 (right) cells were seeded in 96-well plates and were treated with the different items as described. Cell survival was measured by the enzymatic WST-1 (left) and MTT assays (right). % Survival was calculated as the percentage of living cells remaining after treatment with respect to non-treated cells.

The subject of series [9] is H1975 cells. Description: Cell survival after CD24-targeted lentivirus plus peptide, MTT. The series is classed as cell-based, human. The settings on record: Raltegravir added to LV-CD24 plus INS or INR2. On the procedure:
(§4) The cell-killing effect of the system was measured by the MTT3-(4,5-dimethylthiazol-2-yl)-2,5-diphenyltetrazoliumenzymatic assay or by 2-(4-iodophenyl)-3-(4-nitrophenyl)-5-(2,4-disulfophenyl)-2H-tetrazolium (WST-1) assay. Two thousand cultured cells were seeded onto 96-well plates (in culture media, DMEM, or RPMI). After 24 h, different concentrations of the diverse peptides (and inhibitors) were added for 3 h. Thirty MOI of the targeted lentiviral particles were added to the cells and the plates centrifuged for 90 min at 800×g, 20 °C. Three and six days later, this procedure (peptides/inhibitor and LV treatments) was repeated. On the tenth day, cell viability was analyzed either by MTT or by WST-1; the media was replaced by fresh media (100 μl per well) containing 1 mg/ml MTT, and the cells were incubated for 2–4 more hours. MTT-formazan crystals were dissolved by the addition of extraction solution (0.1 N HCl in absolute isopropanol). Absorbance at 570 nm and a reference wavelength of 690 nm was recorded on an automated microplate reader. For WST-1, media was replaced and WST-1 was added directly to the culture wells followed by incubation of 10–60 min at 37 °C. Plates were read by an automated microplate reader by measuring the absorbance of the dye with a wavelength of 450 nm and a reference wavelength of 630 nm.

The subject of series [10] is Panc-1 cells. Kind of series: Cell survival after CD24-targeted lentivirus plus peptide, WST-1. It is filed as cell-based, human. The note with it: Raltegravir added to LV-CD24 plus INS or INR2. The procedure:
as §4

Series [11] concerns CD24 expressing cancer cells. It is filed as cell-based, human. The note with it: abstract.
[12] abbreviates: from 5 mg/mL sample (10 mg/ml stock into plasma 1:1), at 0 min, verified at 60 min, methanol precipitation, PTFE 0.45 µm filtration.

The structures appear in SMILES notation. ≈ marks a conversion by molar mass, not a printed value. Residues, ends and D or L forms follow the SMILES beside them.

As for `O=P1(N(CCCl)CCCl)NCCCO1` (stereo not shown) [CP, cyclophosphamide monohydrate, reference compound], in [1], the “% Gaps” value was 4.0%, the “% Structural aberration without gaps” value was 47.0%, the “Cells with endoreduplication (%)” value amounted to 3.0% and the “Cells with polyploidy (%)” value turned out to be 0.0%. For the same molecule, the “Cytotoxicity (%)” value in series [1] (cell growth inhibition relative to negative control) was determined as 50%. The “% Structural aberrant cells” value in series [1] (cells with only gaps not included, *p ≤ 0.05 Fisher's Exact test) is 35.0* %.

With `CC(C)[C@H](NC(=O)[C@@H](NC(=O)[C@@H](NC(=O)[C@H](CO)NC(=O)[C@@H](NC(=O)[C@H](Cc1ccccc1)NC(=O)[C@H](CC(N)=O)NC(=O)[C@H](CO)NC(=O)CNC(=O)[C@@H](N)Cc1c[nH]c2ccccc12)[C@@H](C)O)[C@@H](C)O)[C@@H](C)O)C(=O)N[C@@H](CCCCN)C(=O)N[C@@H](C)C(=O)O` [INR] (H-WGSNFTSTTVKA-OH), the “Analyte Remaining %” value in series [2] (0 h) amounted to 41.8%; in [2] (0.25 h), 51.1%; in series [2] (0.5 h) it was 34.3%; in [2] (1 h) it was 43.5%; in series [2] (2 h) it was 43.6%; in [2] (4 h) it was 38.2%. For the same molecule, the “Analyte Remaining %” value in series [2] (8 h) was determined as 35.3%; in series [2] (24 h), 36.9%; in series [7] (0 h) it was 40.9%; in series [7] (0.25 h), 40.3%; in series [7] (0.5 h), 45.3%; in series [7] (1 h), 47.3%. Moreover, the “Analyte Remaining %” value is 39.2% in [7] (2 h), 41.2% in series [7] (4 h), 38.3% in [7] (8 h) and 38.9% in series [7] (24 h). Moreover, the “Concentration calculated from LC-MS data” value in series [2] (0 h) is 2090 µg/mL; in series [2] (0.25 h), 2560 µg/mL; in [2] (0.5 h), 1710 µg/mL; in series [2] (1 h), 2170 µg/mL; in series [2] (2 h), 2180 µg/mL; in [2] (4 h), 1910 µg/mL. The “Concentration calculated from LC-MS data” value was 1760 µg/mL in series [2] (8 h); 1840 µg/mL in series [2] (24 h); 2050 µg/mL in series [7] (0 h); 2020 µg/mL in [7] (0.25 h); 2270 µg/mL in series [7] (0.5 h); 2370 µg/mL in [7] (1 h). Besides, the “Concentration calculated from LC-MS data” value in series [7] (2 h) is 1960 µg/mL; in [7] (4 h) it was 2060 µg/mL; in series [7] (8 h), 1910 µg/mL; in [7] (24 h) it was 1950 µg/mL. Moreover, in series [3], the “Effect on lung cancer cell viability” value is on record as “no effect”. Moreover, the Solubility was found to be 42.6% in series [4] (% of 5 mg/mL sample); 2.13 mg/mL (≈ 1640 µM) in [4] (setting [12]); 66.2% in series [5] (% of 5 mg/mL sample); 3.31 mg/mL (≈ 2550 µM) in series [5] (from 5 mg/mL sample (10 mg/ml stock into PBS 1:1), methanol dilution, PTFE 0.45 µm filtration); 44.2% in series [6] (% of 5 mg/mL sample); 2.21 mg/mL (≈ 1700 µM) in [6] (setting [12]). In addition, the “Solubility (in words)” value in [5] (rat and human plasma) is listed as “highly soluble”. Also, the “Stability” value in [7] (both types of sera (rat and human plasma), for the entire 24 h) is recorded as 40%; in series [7] (rat and human plasma, ~4 h incubation), 40%.

As for `Cc1nnc(C(=O)NC(C)(C)c2nc(C(=O)NCc3ccc(F)cc3)c(O)c(=O)n2C)o1` [Raltegravir], the “Effect on GFP fluorescence of INS-treated cells” value in series [8] is reported as “nearly eliminated”. Besides, the “Effect on cell death induced by LV plus peptide” value in [9] and in series [10] was “successfully suppressed the observed cell death” each time. The “Effect on induction of apoptosis” value in series [11] is given as “inhibited the induction of apoptosis”.

Source of the values: paper PMC8175240, “Integrase-derived peptides together with CD24-targeted lentiviral particles inhibit the growth of CD24 expressing cancer cells” (Oncogene, 2021).
